Results published in patent US20100316631A1, “Water Soluble Curcumin-Based Compounds” (THE UAB RESEARCH FOUNDATION, priority 2006, published 2010).

Key:
BxPC-3 = assay: Cytotoxicity assay, BxPC-3 (pancreatic); conditions: Homo sapiens, BXPC-3, read-out: Cytotoxicity IC50, Bx-PC3
Procedure: (§1) The growth inhibitory effects of conjugates 5 and 8 were examined through a series of cytoxcicity assays against a variety of cancer cell types of human origin. The cell types tested were PC-3 (prostate), LS-174T (colon), MIA PaCa-2 (pancreatic) and BxPC-3 (pancreatic).
(§2) The surviving cell populations were counted on the fourth day after treatment (96 hour post-treatment). The viable cells were then counted and the numbers of treated cells were normalized against the untreated controls (taken as 100%).
(§3) Tumor cells (as indicated) were maintained as monolayers in 75-cm^2 tissue culture flasks using their respective cell culture medium containing 10% fetal bovine serum and 2 mM L-glutamine. Incubation was at 37° C. under a humidified 5% CO2: air atmosphere (standard conditions) for five days. The cells were harvested when in mid-log growth and their concentration was determined using a particle counter (Beckman Coulter, Inc, Fullerton, Calif.). An aliquot of the cell suspension was diluted in culture medium for delivery to a 24-well tissue culture plate at a range of 10,000 to 30,000 per 1 mL per well. […] Following a 96-h incubation under standard conditions from the initial treatment, the viable cells were counted and the numbers were normalized to the percent of untreated controls. […]

PC-3 = assay: Cytotoxicity assay, PC-3 (prostate); conditions: Homo sapiens, PC-3, read-out: Cytotoxicity IC50, PC-3
Procedure: as §1, §2, §3

LS-174T = assay: Cytotoxicity assay, LS-174T (colon); conditions: Homo sapiens, LS174T, read-out: Cytotoxicity IC50, LS-174T
Procedure: as §1, §2, §3

MIA PaCa-2 = assay: Cytotoxicity assay, MIA PaCa-2 (pancreatic); conditions: Homo sapiens, MIA PaCa-2, read-out: Cytotoxicity IC50, MIA PaCa-2
Procedure: as §1, §2, §3

[1] = cited from earlier work

`COc1cc(/C=C/C(=O)CC(=O)/C=C/c2ccc(O)c(OC)c2)ccc1O` [Curcumin, (E,E)-1,7-bis(4-hydroxy-3-methoxyphenyl)-1,6-heptadiene-3,5-dione] showed an IC50 (BxPC-3) of 2 ± 0.3 µM, an IC50 (PC-3) of 12 ± 1.35 µM and an IC50 (LS-174T) of 6.5 ± 1.4 µM. For the same molecule, the IC50 (MIA PaCa-2) was 9 ± 2.5 µM and the “solubility in water and other aqueous solutions” value [1] was “insoluble”.
